Legend:
[1] = system: Ovarian follicular cells, lines 100B-OR-5A, 100B5-OR-B, 100B5-OR-D; assay: 8-Br-cAMP / FSH stimulation of progesterone secretion by cultured follicular cells; format: cell-based, human; settings: 1 mM 8-Br-cAMP, 24 hours
Protocol: (§1) Cells in SC-2 were propagated and sub-cultured as above more than 20 times. […] Quantitative radioimmune assays (RIA) were employed as described in Radioassay Systems in Clinical Endocrinology, 1981, Ed. G. E. Abraham, {Basel: Marcel Dekker}, pp. 475-529. Progesterone, testosterone, estradiol, prolactin, thyroid stimulating hormone and luteinizing hormone were assayed by the Coat-a-Count procedure (Diagnostic Products Corp., Los Angeles).
Ovarian follicular cells, lines 100B-OR-5A, 100B5-OR-B, and 100B5-OR-D, were established in culture as described in Example 1 and maintained and sub-cultured as described in Example 2. From these lines were created sub-cultures designated 1, 2, and 3 respectively, which were employed in the stimulation protocol described below.

[2] = system: Human pancreas cells at passage generation 47; assay: Effect of amino acids on glucose stimulated insulin secretion (Example 20); format: cell-based; settings: for insulin secretion, +10 mM alanine / insulin secretion, +20 mM arginine: 90 minutes
Protocol: Human pancreas cells at passage generation 47, were prepared for the experiment as described in Example 17 above. The cells were incubated in 6 parts PDM plus 1 part DMSS medium at a concentration of 10^5 cells/ml, at various concentrations of glucose. Alanine (10 mM) or arginine(20 mM) were added, and the cells were incubated for 90 minutes, at which time samples were collected for assay of insulin content.

human follicular cells = assay: Long-term hormone secretion of follicular sub-cultures with added testosterone substrate (Example 2); format: cell-based; design: dose or concentration left out as unconfirmed; settings: testosterone added as substrate for steroid production
Protocol: as §1, with “Angeles). Follicle-stimulating hormone and B-hCG were assayed by the SERONO MATAclone procedure (Serono, Italy).” for “Angeles).”
Conclusions: Using this method, human follicular cells were propagated in culture and transferred to serial subcultures which continued to proliferate and to secrete hormones.

Structure (SMILES): Nc1ncnc2c1nc(Br)n2[C@@H]1O[C@@H]2COP(=O)(O)O[C@H]2[C@H]1O [8-Br-cAMP]
- Prog ([1]; culture 1): 24.5 ng/10^6 cells
- Prog ([1]; culture 2): 12.9 ng/10^6 cells
- Prog ([1]; culture 3): 20.8 ng/10^6 cells

Structure (SMILES): C[C@H](N)C(=O)O [alanine, Alanine]
- increase of insulin secretion over that stimulated by glucose alone ([2]; 10 mM alanine at 2 mM glucose): 1.25 fold
- insulin secretion stimulated over the intermediate level of secretion ([2]; 10 mM alanine together with 1 mM glucose, 1.5 hours): approximately 1.13 fold
- insulin secretion, +10 mM alanine ([2]; total 1 mM glucose): 103
- insulin secretion, +10 mM alanine ([2]; total 2 mM glucose): 135
- insulin secretion, +10 mM alanine ([2]; total 6 mM glucose): 127
- insulin secretion, +10 mM alanine ([2]; total 11 mM glucose): 117
- insulin secretion, +10 mM alanine ([2]; total 16 mM glucose): 101
- insulin secretion, +10 mM alanine ([2]; total 22 mM glucose): 87

Structure (SMILES): N=C(N)NCCC[C@H](N)C(=O)O [arginine]
- insulin secretion, +20 mM arginine ([2]; total 1 mM glucose): 128
- insulin secretion, +20 mM arginine ([2]; total 2 mM glucose): 134
- insulin secretion, +20 mM arginine ([2]; total 6 mM glucose): 105
- insulin secretion, +20 mM arginine ([2]; total 11 mM glucose): 93
- insulin secretion, +20 mM arginine ([2]; total 16 mM glucose): 99
- insulin secretion, +20 mM arginine ([2]; total 22 mM glucose): 94

Structure (SMILES): C[C@]12CC[C@H]3[C@@H](CCC4=CC(=O)CC[C@@]43C)[C@@H]1CC[C@@H]2O [testosterone]
- time subcultures continued to secrete hormones after first placed in culture (human follicular cells): ≤ 16 months

Reference: patent publication US6372493B1, “Hormone-secreting cells maintained in long-term culture” (Pacific Biomedical Research, Inc. [Cell Mart, Inc.], priority 1991, dated 2002)
